Assay results as given in the NIST ThermoML archive (doi:10.1021/je049609w).

Key:
[1] = xn = mol fraction of the nth substance listed; details: 101 kPa, Liquid
[2] = refractive index (Na D-line) (dimensionless); xn = mol fraction of the nth substance listed; details: 101 kPa, Liquid

C1COCCO1 [1,4-dioxane] + CCCCO
Details	mass density, 298.15 K [kg/m3]	mass density, 303.15 K [kg/m3]	mass density, 308.15 K [kg/m3]	refractive index, 298.15 K	refractive index, 303.15 K	refractive index, 308.15 K	speed of sound, 298.15 K [m/s]	viscosity, 298.15 K [mPa·s]	viscosity, 303.15 K [mPa·s]	viscosity, 308.15 K [mPa·s]
[1], x1 = 0.1014	826.1	822.1	818.1	–	–	–	1249	2.15	1.926	1.703
[1], x1 = 0.2015	846.7	842.4	838.1	–	–	–	1260	1.757	1.602	1.447
[1], x1 = 0.2982	866.9	862.4	858	–	–	–	1270	1.489	1.347	1.204
[1], x1 = 0.3995	888.7	884	879.5	–	–	–	1281	1.327	1.196	1.066
[1], x1 = 0.4945	909.6	904.8	900.1	–	–	–	1291	1.241	1.13	1.03
[1], x1 = 0.5993	933.5	928.4	923.4	–	–	–	1301	1.177	1.081	0.985
[1], x1 = 0.7023	957.5	952.3	947.1	–	–	–	1310	1.153	1.063	0.972
[1], x1 = 0.802	981.1	975.8	970.4	–	–	–	1320	1.162	1.07	0.979
[1], x1 = 0.9017	1004.9	999.5	994	–	–	–	1332	1.17	1.078	0.986
[1], x1 = 1	1028.6	1022.9	1017.2	–	–	–	1345	1.196	1.095	1.008
[2], x1 = 0.1014	–	–	–	1.3999	1.3976	1.3952	–	–	–	–
[2], x1 = 0.2015	–	–	–	1.4016	1.3992	1.3968	–	–	–	–
[2], x1 = 0.2982	–	–	–	1.4032	1.4008	1.3984	–	–	–	–
[2], x1 = 0.3995	–	–	–	1.4052	1.4028	1.4003	–	–	–	–
[2], x1 = 0.4945	–	–	–	1.4071	1.4046	1.4022	–	–	–	–
[2], x1 = 0.5993	–	–	–	1.4095	1.4069	1.4044	–	–	–	–
[2], x1 = 0.7023	–	–	–	1.4119	1.4094	1.4068	–	–	–	–
[2], x1 = 0.802	–	–	–	1.4145	1.4118	1.4093	–	–	–	–
[2], x1 = 0.9017	–	–	–	1.4172	1.4145	1.4118	–	–	–	–
[2], x1 = 1	–	–	–	1.4203	1.4164	1.4145	–	–	–	–

CCCCO [butan-1-ol] + C1COCCO1
x2 = 0
Details	mass density, 298.15 K [kg/m3]	mass density, 303.15 K [kg/m3]	mass density, 308.15 K [kg/m3]	refractive index, 298.15 K	refractive index, 303.15 K	refractive index, 308.15 K	speed of sound, 298.15 K [m/s]	viscosity, 298.15 K [mPa·s]	viscosity, 303.15 K [mPa·s]	viscosity, 308.15 K [mPa·s]
[1]	805.8	802	798	–	–	–	1237	2.564	2.245	1.981
[2]	–	–	–	1.3983	1.3955	1.3937	–	–	–	–

CCOC(C)=O [ethyl acetate] + C1COCCO1
x2 = 0
Details	mass density, 298.15 K [kg/m3]	mass density, 303.15 K [kg/m3]	mass density, 308.15 K [kg/m3]	refractive index, 298.15 K	refractive index, 303.15 K	refractive index, 308.15 K	speed of sound, 298.15 K [m/s]	viscosity, 298.15 K [mPa·s]	viscosity, 303.15 K [mPa·s]	viscosity, 308.15 K [mPa·s]
[1]	894.2	887.9	881.6	–	–	–	1155	0.438	0.414	0.392
[2]	–	–	–	1.3713	1.3673	1.3631	–	–	–	–
